Assay results reported in US11999727B2 (Tango Therapeutics, Inc., priority 2020, dated 2024).

Columns and labels:
PRMT5 [1] = target: T1, PRMT5 (Homo sapiens, UniProt O14744); experiment: PRMT5 biochemical IC50 assay with no cofactor; conditions: PRMT5, no cofactor
T1 construct: purchased Viva (custom protein)
Description: Table 1 indicates IC50 values (μM) against PRMT5 for exemplary compounds in the presence of SAM as cofactor, with no cofactor, and with MTA as cofactor, respectively (columns 4-6). […] Ki values can be calculated from the IC50 values as described in the Examples section. As detailed in the Examples section, for the assay performed in the presence of SAM, IC50=Ki×1.5 (Ki=IC50/1.5).

PRMT5 [2] = target: T1, PRMT5; experiment: PRMT5 biochemical IC50 assay with MTA as cofactor; conditions: PRMT5, MTA as cofactor; read-out: MTA IC50
[3] = system: HAP1 MTAP-deleted cell line; experiment: Viability assay, MTAP-deleted cell line; assay type: cell-based; conditions: Homo sapiens, read-out: HAP1 MTAP deleted viability
Description: Table 1 additionally indicates IC50 values in a viability assay for the MTAP-deleted cell line (column 10), indicating the effect of treatment with compound on cell survival.

PRMT5 [4] = target: T1, PRMT5; experiment: PRMT5 biochemical IC50 assay with SAM as cofactor; conditions: PRMT5, SAM as cofactor; read-out: SAM IC50
[5] = system: HAP1 MTAP-deleted cell line; experiment: SDMA in-cell western assay, HAP1 MTAP-deleted; assay type: cell-based; conditions: for IC50: Homo sapiens, HAP1, SDMA in-cell western, HAP1 MTAP-deleted; for MTAP intact/deleted ratio: SDMA in-cell western
Method in brief: (§1)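 MTAP-null vs endogenous-MTAP HAP1 isogenic cells; in-cell western SDMA readout; IC50 per line.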

[6] = system: HAP1 MTAP-intact cell line; experiment: SDMA in-cell western assay, HAP1 MTAP-intact; assay type: cell-based; conditions: Homo sapiens, HAP1, SDMA in-cell western, HAP1 MTAP-intact; read-out: MTAP HAP1 intact IC50
Method in brief: as §1

[7] = HAP1, viability IC50, MTAP-deleted cell line
[8] = read-out: HAP 1 MTAP deleted IC50
[9] = IC50 ratio HAP1 MTAP-intact / HAP1 MTAP-deleted
[10] = read-out: No Cofactor/ rel IC50
[11] = HAP1, viability assay, MTAP-deleted cell line
[12] = read-out: HAP1 MTAP deleted IC50
[13] = IC50 ratio HAP1 MTAP-intact vs HAP1 MTAP-deleted
[14] = HAP1, viability, HAP1 MTAP-deleted cell line
[15] = HAP1, viability assay, HAP1 MTAP-deleted

T1 sequence (O14744 whole entry): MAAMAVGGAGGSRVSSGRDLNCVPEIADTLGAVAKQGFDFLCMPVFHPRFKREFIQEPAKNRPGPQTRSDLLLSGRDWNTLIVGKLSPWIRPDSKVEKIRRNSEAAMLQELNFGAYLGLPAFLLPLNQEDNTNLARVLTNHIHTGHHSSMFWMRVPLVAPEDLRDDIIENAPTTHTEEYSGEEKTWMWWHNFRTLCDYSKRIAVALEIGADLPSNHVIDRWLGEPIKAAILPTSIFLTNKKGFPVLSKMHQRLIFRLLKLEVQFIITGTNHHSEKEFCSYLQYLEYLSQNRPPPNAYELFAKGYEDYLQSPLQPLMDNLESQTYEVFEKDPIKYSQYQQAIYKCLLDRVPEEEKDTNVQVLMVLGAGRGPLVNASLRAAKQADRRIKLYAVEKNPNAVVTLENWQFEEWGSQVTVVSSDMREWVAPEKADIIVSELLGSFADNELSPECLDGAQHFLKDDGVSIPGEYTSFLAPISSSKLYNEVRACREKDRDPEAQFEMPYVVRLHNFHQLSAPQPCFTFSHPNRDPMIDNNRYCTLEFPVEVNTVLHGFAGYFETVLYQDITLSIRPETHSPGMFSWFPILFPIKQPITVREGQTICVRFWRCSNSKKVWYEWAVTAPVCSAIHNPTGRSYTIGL
T1 sequence (Q9BQA1 whole entry partner): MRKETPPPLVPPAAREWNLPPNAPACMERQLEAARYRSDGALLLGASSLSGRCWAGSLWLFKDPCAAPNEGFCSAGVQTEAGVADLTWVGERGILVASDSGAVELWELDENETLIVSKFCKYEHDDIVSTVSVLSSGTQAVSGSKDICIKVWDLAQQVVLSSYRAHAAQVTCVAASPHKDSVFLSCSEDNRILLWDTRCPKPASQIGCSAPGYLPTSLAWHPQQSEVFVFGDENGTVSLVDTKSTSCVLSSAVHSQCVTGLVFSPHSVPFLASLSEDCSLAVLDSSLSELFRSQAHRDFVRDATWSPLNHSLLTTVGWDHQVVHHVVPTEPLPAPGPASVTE

| Compound | IC50 (PRMT5 [1]; read-out: No Cofactor/rel IC50) [nM] | IC50 (PRMT5 [2]) [nM] | IC50 [3, 7] [nM] | IC50 (PRMT5 [4]) [nM] | IC50 [5, 8] [nM] | MTAP intact/deleted ratio [5, 9] | IC50 [6] [nM] | IC50 (PRMT5 [1]; [10]) [nM] | IC50 [3, 11] [nM] | IC50 [5, 12] [nM] | MTAP intact/deleted ratio [5, 13] | IC50 [3, 14] [nM] | IC50 [3, 15] [nM] |
| --- | --- | --- | --- | --- | --- | --- | --- | --- | --- | --- | --- | --- | --- |
| C[C@H]1CC[C@H](c2ccc(C(F)(F)F)c(Cl)c2)N(C(=O)C(=O)Nc2cncc(C(N)=O)c2)C1 (single isomer, unassigned) [Compound 655] | 50 to 500 | < 50 | 1000 to 10000 | < 50 | 100 to 1000 | A (an IC50 ratio greater than or equal to 10 fold) | > 1000 |  |  |  |  |  |  |
| NC(=O)c1cncc(NC(=O)C(=O)N2CCC3(CC2)OCC2CC23)c1 (stereo not shown) [Compound 149, 5-(2-{3-Oxaspiro[bicyclo[3.1.0]hexane-2,4′-piperidine]-1′-yl}-2-oxoacetamido)pyridine-3-carboxamide] |  | 50 to 500 |  | 50 to 500 | > 1000 | C (an IC50 ratio of less than 3 fold) | > 1000 | > 500 | > 10000 |  |  |  |  |
| CCc1cc(NC(=O)C(=O)N2C[C@@H](C)CC[C@@H]2c2ccc3sc(C4CCN(C)CC4)nc3c2)cnc1C [Compound 1100, N-(5-ethyl-6-methylpyridin-3-yl)-2-((2R,5S)-5-methyl-2-(2-(1-methylpiperidin-4-yl)benzo[d]thiazol-5-yl)piperidin-1-yl)-2-oxoacetamide] | < 50 | < 50 |  | < 50 |  |  | 100 to 1000 |  | < 1000 | < 100 | A (an IC50 ratio greater than or equal to 10 fold) |  |  |
| NC(=O)c1cncc(NC(=O)C(=O)N2C[C@@H]3CC[C@@H](C3)[C@@H]2c2ccccc2)c1 (single isomer, unassigned) [Compound 205] | > 500 | 50 to 500 |  | 50 to 500 |  | B (an IC50 ratio greater than or equal to 3 fold but lower than 10 fold) | > 1000 |  | > 10000 | > 1000 |  |  |  |
| CCc1cc(NC(=O)C(=O)N2C[C@H](C)CC[C@H]2c2ccc3sc(CCN(C)C)nc3c2)cnc1N (single isomer, unassigned) [Compound 1133] | > 500 | > 500 |  | > 500 |  |  | > 1000 |  | 1000 to 10000 | > 1000 |  |  |  |
| CCc1cc(NC(=O)C(=O)N2C[C@@H](C)[C@@H](OC)C[C@@H]2c2ccc3scnc3c2)cnc1N (single isomer, unassigned) [Compound 1286] |  | < 50 |  | 50 to 500 | < 100 | A (an IC50 ratio greater than or equal to 10 fold) | 100 to 1000 | < 50 |  |  |  | < 1000 |  |
| C[C@@H]1CC[C@@H](c2ccccc2)N(C(=O)C(=O)Nc2cncc(C(N)=O)c2)[C@@H]1C (racemic) [Compound 154, rac-5-[[2-[(2R,3R,6S)-2,3-dimethyl-6-phenyl-1-piperidyl]-2-oxo-acetyl]amino]pyridine-3-carboxamide] |  | < 50 |  | 50 to 500 | > 1000 | B (an IC50 ratio greater than or equal to 3 fold but lower than 10 fold) | > 1000 | 50 to 500 | > 10000 |  |  |  |  |
| CC[C@@H]1CC[C@H](c2ccccc2)N(C(=O)C(=O)Nc2cncc(C(N)=O)c2)C1 (single isomer, unassigned) [Compound 565] | > 500 | 50 to 500 | > 10000 | 50 to 500 | 100 to 1000 | A (an IC50 ratio greater than or equal to 10 fold) | > 1000 |  |  |  |  |  |  |
| CCc1cc(NC(=O)C(=O)N2[C@@H](C)CCC[C@H]2c2ccc3sc(C4CCN(C)CC4)nc3c2)cnc1N (single isomer, unassigned) [Compound 1173] | < 50 | < 50 |  | 50 to 500 |  |  | < 100 |  | < 1000 | < 100 | A (an IC50 ratio greater than or equal to 10 fold) |  |  |
| CNc1ccc([C@H]2CC[C@H](C)CN2C(=O)C(=O)Nc2cnc(OC)c(C(N)=O)c2)cn1 (single isomer, unassigned) [Compound 447] | < 50 | < 50 |  | 50 to 500 |  | A (an IC50 ratio greater than or equal to 10 fold) | > 1000 |  | < 1000 | < 100 |  |  |  |
| C[C@@H]1C[C@H](F)[C@@H](c2ccc(F)cc2)N(C(=O)C(=O)Nc2cncc(C(N)=O)c2)C1 (racemic) [Compound 879, 5-[[2-[(2R,3S,5R)-3-fluoro-2-(4-fluorophenyl)-5-methyl-1-piperidyl]-2-oxo-acetyl]amino]pyridine-3-carboxamide] | 50 to 500 | < 50 |  | 50 to 500 |  | A (an IC50 ratio greater than or equal to 10 fold) | > 1000 |  |  | 100 to 1000 |  |  | 1000 to 10000 |
| CCc1cc(NC(=O)C(=O)N2C[C@@H](C)CC[C@@H]2c2ccc3sc(CCN(C)C)nc3c2)cnc1N (single isomer, unassigned) [Compound 1196] | < 50 | < 50 |  | < 50 |  |  | < 100 |  | < 1000 | < 100 | A (an IC50 ratio greater than or equal to 10 fold) |  |  |
| C[C@H]1CCC(c2ccc3sc(C4CCOCC4)nc3c2)N(C(=O)C(=O)Nc2cnc(N)c(C3CC3)c2)C1 (single isomer, unassigned) [Compound 1258] |  | < 50 |  | 50 to 500 | < 100 | A (an IC50 ratio greater than or equal to 10 fold) | 100 to 1000 | < 50 |  |  |  | < 1000 |  |
| Cc1cc(NC(=O)C(=O)N2C[C@H](C)CC[C@H]2c2cnn(-c3ccn[nH]3)c2)cnc1N (racemic) [Compound 793, N-(6-amino-5-methyl-3-pyridyl)-2-[(2R,5S)-5-methyl-2-[1-(1H-pyrazol-3-yl)pyrazol-4-yl]-1-piperidyl]-2-oxo-acetamide] | 50 to 500 | 50 to 500 |  | 50 to 500 |  | A (an IC50 ratio greater than or equal to 10 fold) | > 1000 |  |  | 100 to 1000 |  |  | 1000 to 10000 |
| CCc1cc(NC(=O)C(=O)N2C[C@@H](C)CC[C@@H]2c2ccn3cc(C4CCN(C)CC4)nc3c2)cnc1N [Compound 1274, N-(6-amino-5-ethylpyridin-3-yl)-2-((2R,5S)-5-methyl-2-(2-(1-methylpiperidin-4-yl)imidazo[1,2-a]pyridin-7-yl)piperidin-1-yl)-2-oxoacetamide] |  | < 50 |  | 50 to 500 | < 100 | A (an IC50 ratio greater than or equal to 10 fold) | 100 to 1000 | < 50 |  |  |  | < 1000 |  |
| C[C@@H]1CC[C@@H](c2cccc(OC(F)(F)F)c2)N(C(=O)C(=O)Nc2cncc(C(N)=O)c2)C1 (racemic) [Compound 279, rac-5-{2-[(2R,5S)-5-Methyl-2-[3-(trifluoromethoxy)phenyl]piperidin-1-yl]-2-oxoacetamido}pyridine-3-carboxamide] | 50 to 500 | < 50 |  | 50 to 500 |  | A (an IC50 ratio greater than or equal to 10 fold) | > 1000 |  | 1000 to 10000 | 100 to 1000 |  |  |  |
| C[C@@H]1CC[C@@H](c2ccc3cncn3c2)N(C(=O)C(=O)Nc2cnc(N)c(C3CC3)c2)C1 (single isomer, unassigned) [Compound 1336, N-(6-amino-5-cyclopropylpyridin-3-yl)-2-(2-(imidazo[1,5-a]pyridin-6-yl)-5-methylpiperidin-1-yl)-2-oxoacetamide] |  | > 500 |  | > 500 | 100 to 1000 |  | > 1000 | > 500 |  |  |  | 1000 to 10000 |  |
| Cc1ccc([C@@H]2CC(F)(F)[C@@H](C)CN2C(=O)C(=O)Nc2cncc(C(N)=O)c2)cn1 (single isomer, unassigned) [Compound 946] | > 500 | > 500 |  | > 500 | > 1000 | B (an IC50 ratio greater than or equal to 3 fold but lower than 10 fold) | > 1000 |  | > 10000 |  |  |  |  |
